Measured values as given in US20120172361A1, “TRIAZINE DERIVATIVES AND THEIR THERAPEUTICAL APPLICATIONS” (CALIFORNIA CAPITAL EQUITY, LLC, priority 2009, published 2012).

Molecular target: T1, Aurora-A(h) (Homo sapiens, UniProt O14965)
T1 construct: purchased Millipore (KinaseProfiler service); also Reaction Biology Corp. (Kinase Hotspot)
T1 sequence (O14965 1-403): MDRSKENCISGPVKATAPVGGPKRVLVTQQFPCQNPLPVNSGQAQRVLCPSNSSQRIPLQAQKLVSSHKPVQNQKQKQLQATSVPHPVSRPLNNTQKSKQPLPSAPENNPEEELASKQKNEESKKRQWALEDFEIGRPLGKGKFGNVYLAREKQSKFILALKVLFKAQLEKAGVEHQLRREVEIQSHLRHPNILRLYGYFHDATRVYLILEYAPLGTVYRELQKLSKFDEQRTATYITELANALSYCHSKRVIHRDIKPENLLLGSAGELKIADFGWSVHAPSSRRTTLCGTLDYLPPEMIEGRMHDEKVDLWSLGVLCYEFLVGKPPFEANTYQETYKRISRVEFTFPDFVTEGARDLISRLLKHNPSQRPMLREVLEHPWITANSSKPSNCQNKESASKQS
Assay: Aurora-A kinase assay (KinaseProfiler Service Assay Protocols, Millipore; also Kinase Hotspot, Reaction Biology Corp.)
Type: biochemical
Details: compound concentration 1 μM
Experimental: This example illustrated Aurora Kinase Assays of selected Compounds from this invention (referred to Daniele Fancelli et al, J. Med. Chem., 2006, 49 (24), pp 7247-7251). The KinaseProfiler™ Service Assay Protocols (Millipore) were used to test the kinase inhibiting activity of novel compounds from this invention. To do this, the buffer composition was as: 20 mM MOPS, 1 mM EDTA, 0.01% Brij-35, 5% Glycerol, 0.1% β-mercaptoethanol, 1 mg/mL BSA. Test compounds were initially dissolved in DMSO at the desired concentration, then serially diluted to the kinase assay buffer. In a final reaction volume of 25 μL, Aurora-A(h) (5-10 mU) is incubated with 8 mM MOPS pH 7.0, 0.2 mM EDTA, 200 μM LRRASLG (Kemptide), 10 mM MgAcetate and [γ33P-ATP]. The reaction was initiated by the addition of the MgATP mix. After incubation for 40 minute at room temperature, the reaction was stopped by addition of 5 μL of a 3% phosphoric acid solution. 10 μL of the reaction was then spotted onto a P30 filtermat and washed three times for 5 minutes in 50 mM phosphoric acid and once in methanol prior to drying and scintillation counting. Wells containing substrate but no kinase and wells containing a phosphopeptide control were used to set 0% and 100% phosphorylation value, respectively.
Also Kinase Hotspot SM kinase assay was used to test the compounds for IC50 or % inhibitions (Reaction Biology Corp.). Inhibitor IC50 values were determined by titration of compound at the optimal kinase concentration (Kinase EC50).

SMILES | inhibition at 1 µM [%]
CCc1nc(Nc2ncc(C)s2)nc(N2CCN(C)CC2)n1 [Example 75] | < 50
CN1CCN(c2nc(Nc3ccc(Br)cn3)nc(Sc3ccc(NC(=O)C4CC4)cc3)n2)CC1 [Example 123] | > 50
CCOC(=O)c1cc(Nc2nc(Sc3ccc(NC(=O)C4CC4)cc3)nc(N3CCN(C)CC3)n2)n[nH]1 [Example 30] | > 90
Cc1cc(Nc2nc(Sc3ccc(C(=O)Nc4ccccc4)cc3)nc(N3CCN(C)CC3)n2)n[nH]1 [Example 116] | > 90
Cc1cnc(Nc2nc(Sc3cccc(N)c3)nc(N3CCN(C)CC3)n2)s1 [Example 49] | > 50
Cc1ccnc(Nc2nc(Sc3ccc(NC(=O)C4CC4)cc3)nc(N3CCN(C)CC3)n2)n1 [Example 121] | < 50
CCCCNc1nc(Nc2ncc(C)s2)nc(Sc2ccc(NC(=O)C3CC3)cc2)n1 [Example 41] | < 50
Cc1cc(Nc2nc(NCCCN3CCOCC3)nc(Sc3ccc(NC(=O)C4CC4)cc3)n2)n[nH]1 [Example 90] | > 90
CC(=O)Nc1ccc(Sc2nc(N3CCN(C)CC3)nc(-n3cc(C)sc3=N)n2)cc1 [Example 67] | < 50
CCC(=O)Nc1ccc(Sc2nc(Nc3ncc(C)s3)nc(N3CCN(C)CC3)n2)cc1 [Example 114] | > 90
CC(C)c1cnc(Nc2nc(Sc3ccc(NC(=O)C4CC4)cc3)nc(N3CCN(C)CC3)n2)s1 [Example 52] | > 90
Cc1cnc(Nc2nc(NCCCN3CCOCC3)nc(Sc3ccc(NC(=O)C4CC4)cc3)n2)s1 [Example 38] | > 90
CN1CCN(c2nc(Nc3ncc(Cl)s3)nc(Sc3ccc(NC(=O)C4CC4)cc3)n2)CC1 [Example 50] | > 90
Cc1cc(Nc2nc(Sc3ccc(NC(=O)C4CC4)cc3)nc(N3CCN(C)CC3)n2)no1 [Example 120] | < 50
CCC(=O)Nc1ccc(Sc2nc(N3CCN(C)CC3)nc(-n3cc(C)sc3=N)n2)cc1 [Example 109] | < 50
CCN(CC)c1nc(Nc2ncc(C)s2)nc(Sc2ccc(NC(=O)C3CC3)cc2)n1 [Example 42] | > 50
Cc1cnc(Nc2nc(Sc3ccc(NC(=O)C4CC4)cc3)nc(N3CCCCC3)n2)s1 [Example 44] | > 50
Cc1nc(Nc2nc(Sc3ccc(NC(=O)C4CC4)cc3)nc(N3CCN(C)CC3)n2)sc1C [Example 61] | < 50
CN1CCN(c2nc(Nc3nncs3)nc(Sc3ccc(NC(=O)C4CC4)cc3)n2)CC1 [Example 11] | < 50
CC(=O)Nc1ccc(Sc2nc(Nc3ncc(C)s3)nc(N3CCN(C)CC3)n2)cc1 [Example 73] | > 90
Cc1cc(Nc2nc(Sc3ccc(C(=O)NC(C)C)cc3)nc(N3CCN(C)CC3)n2)n[nH]1 [Example 115] | > 90
CN1CCN(c2nc(Nc3nc[nH]n3)nc(Sc3ccc(NC(=O)C4CC4)cc3)n2)CC1 [Example 8] | < 50

SMILES | inhibition at 1 µM [%]
CC(=O)Nc1ccc(Sc2nc(CC(C)C)nc(Nc3ncc(C)s3)n2)cc1 [Example 72] | < 50
Cc1ccc(Nc2nc(Sc3ccc(NC(=O)C4CC4)cc3)nc(N3CCN(C)CC3)n2)nc1 [Example 122] | > 50
Cc1cnc(Nc2nc(NCCN(C)C)nc(Sc3ccc(NC(=O)C4CC4)cc3)n2)s1 [Example 39] | > 90
CC(=O)Nc1ccc(Sc2nc(CC(C)C)nc(-n3cc(C)sc3=N)n2)cc1 [Example 69] | < 50
Cc1cc(Nc2nc(Sc3ccc(C(=O)NCc4ccc(F)cc4)cc3)nc(N3CCN(C)CC3)n2)n[nH]1 [Example 118] | > 90
Cc1cnc(Nc2nc(Sc3ccc(NC(=O)C(C)C)cc3)nc(N3CCN(C)CC3)n2)s1 [Example 71] | > 90
CN1CCN(c2nc(Nc3nc4ccccc4[nH]3)nc(Sc3ccc(NC(=O)C4CC4)cc3)n2)CC1 [Example 9] | > 50
CCc1nc(Nc2cc(C)[nH]n2)nc(N2CCN(C)CC2)n1 [Example 103] | < 50
O=C(Nc1ccc(Sc2nc(Nc3ncc[nH]3)nc(-c3ccccc3)n2)cc1)C1CC1 [Example 16] | < 50
Cc1cnc(Nc2nc(Sc3ccc(NC(=O)C4CC4)cc3)nc(N3CCN(C)CC3)n2)s1 [Example 10] | > 90
Cc1cc(Nc2nc(Sc3ccc(NC(=O)C4CC4)cc3)nc(N3CCN(c4ccncc4)CC3)n2)n[nH]1 [Example 12] | > 90
Cc1cn(-c2nc(Sc3ccc(NC(=O)C4CC4)cc3)nc(N3CCN(C)CC3)n2)c(=N)s1 [Example 70] | < 50
Cc1cnc(Nc2nc(Sc3ccc(NC(=O)C4CC4)cc3)nc(N(C)CCN(C)C)n2)s1 [Example 40] | > 50
Cc1cnc(Nc2nc(Sc3ccc(NC(=O)C4CC4)cc3)nc(N3CCN(c4ccncc4)CC3)n2)s1 [Example 20] | > 90
Cc1csc(Nc2nc(Sc3ccc(NC(=O)C4CC4)cc3)nc(N3CCN(C)CC3)n2)n1 [Example 64] | < 50
Cc1cnc(Nc2nc(Sc3ccc(NC(=O)C4CC4)cc3)nc(N3CCN(CCO)CC3)n2)s1 [Example 19] | > 90
Cc1cc(Nc2nc(Sc3ccc(NC(=O)C4CC4)cc3)nc(N3CCN(C)CC3)n2)on1 [Example 76] | > 50
CN1CCN(c2nc(Nc3nccs3)nc(Sc3ccc(NC(=O)C4CC4)cc3)n2)CC1 [Example 60] | < 50
Cc1cn(-c2nc(Sc3ccc(NC(=O)C(C)C)cc3)nc(N3CCN(C)CC3)n2)c(=N)s1 [Example 66] | < 50
Cc1cnc(Nc2nc(Sc3ccc(N)cc3)nc(N3CCN(C)CC3)n2)s1 [Example 48] | > 50
Cc1cc(Nc2nc(Sc3ccc(C(=O)NC4CC4)cc3)nc(N3CCN(C)CC3)n2)n[nH]1 [Example 106] | > 50

Other lines, results leading:

inhibition at 1 µM [%] | SMILES
> 90 | Cc1cc(Nc2nc(Sc3ccc(NC(=O)C4CC4)cc3)nc(N3CCOCC3)n2)n[nH]1 [Example 88]
> 90 | CCCCNc1nc(Nc2cc(C)[nH]n2)nc(Sc2ccc(NC(=O)C3CC3)cc2)n1 [Example 93]
> 90 | Cc1cc(Nc2nc(N)nc(Sc3ccc(NC(=O)C4CC4)cc3)n2)n[nH]1 [Example 97]
< 50 | CCc1nc(Nc2ncc(C)s2)nc(Sc2ccc(NC(=O)C3CC3)cc2)n1 [Example 58]
> 90 | Cc1cc(Nc2nc(Sc3ccc(NC(=O)C4CC4)cc3)nc(C3CC3)n2)n[nH]1 [Example 6]
> 50 | Cc1cc(Nc2nc(Sc3ccc(NC(=O)C4CC4)cc3)nc(N(C)CCN(C)C)n2)n[nH]1 [Example 92]
> 90 | Cc1cc(Nc2nc(Sc3ccc(NC(=O)C4CC4)cc3)nc(N3CCCC3)n2)n[nH]1 [Example 89]
> 90 | CCC(=O)Nc1ccc(Sc2nc(CC)nc(Nc3cc(C4CC4)[nH]n3)n2)cc1 [Example 84]
> 90 | CN1CCN(c2nc(Nc3cc(C4CCC4)[nH]n3)nc(Sc3ccc(NC(=O)C4CC4)cc3)n2)CC1 [Example 55]
> 90 | Cc1cc(Nc2nc(Sc3ccc(NC(=O)C4CC4)cc3)nc(N3CCN(C)CC3)n2)n[nH]1 [Example 2]
> 50 | CCC(=O)Nc1ccc(Sc2nc(C3CC3)nc(-n3cc(C)sc3=N)n2)cc1 [Example 110]
> 90 | Cc1cc(Nc2nc(Sc3ccc(NC(=O)C4CC4)cc3)nc(N(C)C)n2)n[nH]1 [Example 127]
> 90 | CN1CCN(c2nc(Nc3cc(C4CC4)[nH]n3)nc(Sc3ccc(NC(=O)C4CC4)cc3)n2)CC1 [Example 53]
> 90 | CCC(=O)Nc1ccc(Sc2nc(C)nc(Nc3cc(C4CC4)[nH]n3)n2)cc1 [Example 87]
< 50 | CCc1nc(Nc2cc(C)[nH]n2)nc(Sc2ccc(C(=O)NC3CC3)cc2)n1 [Example 107]
> 90 | CCC(=O)Nc1ccc(Sc2nc(Nc3cc(C)[nH]n3)nc(C3CC3)n2)cc1 [Example 82]
> 90 | CCC(=O)Nc1ccc(Sc2nc(Nc3cc(C4CC4)[nH]n3)nc(C3CC3)n2)cc1 [Example 81]
> 50 | Cc1cnc(Nc2nc(Sc3ccc(NC(=O)C4CC4)cc3)nc(C3CC3)n2)s1 [Example 59]
> 90 | Cc1cc(Nc2nc(Sc3ccc(NC(=O)C4CC4)cc3)nc(N3CCN(CCO)CC3)n2)n[nH]1 [Example 96]
> 90 | CCC(=O)Nc1ccc(Sc2nc(CC)nc(Nc3cc(C)[nH]n3)n2)cc1 [Example 83]
> 90 | CCN(CC)c1nc(Nc2cc(C)[nH]n2)nc(Sc2ccc(NC(=O)C3CC3)cc2)n1 [Example 94]
